This data set concerns CCRIS mutagenicity, Ames/micronucleus/aberration tests. Briefly: CCRIS mutagenicity studies.
The mark [1] stands for this setting: Test System: AMES SALMONELLA TYPHIMURIUM, Strain/Indicator: TA98, Metabolic Activation: NONE, Method: PREINCUBATION
Where [2] appears, read: Test System: AMES SALMONELLA TYPHIMURIUM, Strain/Indicator: TA97, Metabolic Activation: NONE, Method: STANDARD PLATE.
Where [3] appears, read: Test System: AMES SALMONELLA TYPHIMURIUM, Strain/Indicator: TA98, Metabolic Activation: NONE, Method: STANDARD PLATE.
Setting [4] is: Test System: AMES SALMONELLA TYPHIMURIUM, Strain/Indicator: TA100, Metabolic Activation: NONE, Method: STANDARD PLATE.
Setting [5] is: Test System: AMES SALMONELLA TYPHIMURIUM, Strain/Indicator: TA1538, Metabolic Activation: NONE, Method: STANDARD PLATE.
Setting [6] is: Test System: AMES SALMONELLA TYPHIMURIUM, Strain/Indicator: TA98, Metabolic Activation: RAT, LIVER, S-9, AROCLOR 1254, Method: STANDARD PLATE.
The mark [7] stands for this setting: Test System: AMES SALMONELLA TYPHIMURIUM, Strain/Indicator: TA100, Metabolic Activation: RAT, LIVER, S-9, AROCLOR 1254, Method: STANDARD PLATE.

The structures appear in SMILES notation. Activity calls are given as the source filed them. The rule behind the calls is not given here.

In the case of `CC(=O)O[C@H]1[C@H]2O[C@H]2C2=CC(=O)[C@]3(C[C@]2(C)[C@H]1C)O[C@]3(C)C=O`, the mutagenic call was “active; positive” under setting [1]; “inactive; negative” (Test System: AMES SALMONELLA TYPHIMURIUM, Strain/Indicator: TA98, Metabolic Activation: RAT, LIVER, S-9, PHENOBARBITAL AND BETA-NAPHTHOFLAVONE, Method: PREINCUBATION); “inactive; negative” (Test System: AMES SALMONELLA TYPHIMURIUM, Strain/Indicator: TA100, Metabolic Activation: NONE, Method: PREINCUBATION); “active; positive” (Test System: AMES SALMONELLA TYPHIMURIUM, Strain/Indicator: TA100, Metabolic Activation: RAT, LIVER, MICROSOMES, PHENOBARBITAL, Method: STANDARD PLATE); “inactive; negative” (Test System: AMES SALMONELLA TYPHIMURIUM, Strain/Indicator: TA100, Metabolic Activation: RAT, LIVER, S-9, PHENOBARBITAL AND BETA-NAPHTHOFLAVONE, Method: PREINCUBATION); “inactive; negative” (Test System: AMES SALMONELLA TYPHIMURIUM, Strain/Indicator: TA100, Metabolic Activation: RAT, LIVER, S-9, PHENOBARBITAL, Method: PREINCUBATION). Further, the mutagenic call reads like this: (Test System: AMES SALMONELLA TYPHIMURIUM, Strain/Indicator: TA1535, Metabolic Activation: NONE, Method: PREINCUBATION) “inactive; negative”; (Test System: AMES SALMONELLA TYPHIMURIUM, Strain/Indicator: TA1535, Metabolic Activation: RAT, LIVER, S-9, PHENOBARBITAL AND BETA-NAPHTHOFLAVONE, Method: PREINCUBATION) “inactive; negative”; (Test System: AMES SALMONELLA TYPHIMURIUM, Strain/Indicator: TA1537, Metabolic Activation: NONE, Method: PREINCUBATION) “inactive; negative”; (Test System: AMES SALMONELLA TYPHIMURIUM, Strain/Indicator: TA1537, Metabolic Activation: RAT, LIVER, S-9, PHENOBARBITAL AND BETA-NAPHTHOFLAVONE, Method: PREINCUBATION) “inactive; negative”; (Test System: AMES SALMONELLA TYPHIMURIUM, Strain/Indicator: TA1538, Metabolic Activation: NONE, Method: PREINCUBATION) “inactive; negative”; (Test System: AMES SALMONELLA TYPHIMURIUM, Strain/Indicator: TA1538, Metabolic Activation: RAT, LIVER, S-9, PHENOBARBITAL AND BETA-NAPHTHOFLAVONE, Method: PREINCUBATION) “inactive; negative”.
In the case of `COc1cccc2c1C(=O)c1c(O)c3c(c(O)c1C2=O)C[C@@](O)(C(=O)CO)C[C@@H]3O[C@H]1C[C@H](N)[C@H](OC)[C@H](C)O1`, the mutagenic call (Test System: AMES SALMONELLA TYPHIMURIUM, Strain/Indicator: GW257, Metabolic Activation: NONE, Method: STANDARD PLATE) is “active; positive”; the mutagenic call under setting [2] was “active; positive”; the mutagenic call under setting [1] was “active; positive”; the mutagenic call under setting [3] was “active; positive”; the mutagenic call under setting [4] was “active; positive”; the mutagenic call (Test System: AMES SALMONELLA TYPHIMURIUM, Strain/Indicator: TA104, Metabolic Activation: NONE, Method: STANDARD PLATE) was “active; positive”. In addition, the mutagenic call by setting is: under setting [5], “active; positive”; (Test System: AMES SALMONELLA TYPHIMURIUM, Strain/Indicator: TA2637, Metabolic Activation: NONE, Method: STANDARD PLATE) “active; positive”.
In the case of `CN(C)CCc1cc(O)ccc1CNc1ccccn1`, the mutagenic call is, setting by setting: under setting [2], “inactive; negative”; (Test System: AMES SALMONELLA TYPHIMURIUM, Strain/Indicator: TA97, Metabolic Activation: RAT, LIVER, S-9, AROCLOR 1254, Method: STANDARD PLATE) “inactive; negative”; under setting [3], “inactive; negative”; under setting [6], “inactive; negative”; under setting [4], “inactive; negative”; under setting [7], “inactive; negative”. Further, the mutagenic call is “inactive; negative” (Test System: AMES SALMONELLA TYPHIMURIUM, Strain/Indicator: TA102, Metabolic Activation: NONE, Method: STANDARD PLATE) and “inactive; negative” (Test System: AMES SALMONELLA TYPHIMURIUM, Strain/Indicator: TA102, Metabolic Activation: RAT, LIVER, S-9, AROCLOR 1254, Method: STANDARD PLATE).
In the case of `COC(=O)C(C)(C)Oc1ccc(-c2ccc(Cl)cc2)cc1`, the mutagenic call by setting is: under setting [3], “inactive; negative”; under setting [6], “inactive; negative”; (Test System: AMES SALMONELLA TYPHIMURIUM, Strain/Indicator: TA98, Metabolic Activation: RAT, LIVER, S-9, PHENOBARBITONE AND BETA-NAPHTHOFLAVONE, Method: PREINCUBATION) “inactive; negative”; under setting [4], “inactive; negative”; under setting [7], “inactive; negative”; (Test System: AMES SALMONELLA TYPHIMURIUM, Strain/Indicator: TA100, Metabolic Activation: RAT, LIVER, S-9, PHENOBARBITONE AND BETA-NAPHTHOFLAVONE, Method: PREINCUBATION) “inactive; negative”. Moreover, the mutagenic call reads like this: (Test System: AMES SALMONELLA TYPHIMURIUM, Strain/Indicator: TA1535, Metabolic Activation: NONE, Method: STANDARD PLATE) “inactive; negative”; (Test System: AMES SALMONELLA TYPHIMURIUM, Strain/Indicator: TA1535, Metabolic Activation: RAT, LIVER, S-9, AROCLOR 1254, Method: STANDARD PLATE) “inactive; negative”; (Test System: AMES SALMONELLA TYPHIMURIUM, Strain/Indicator: TA1537, Metabolic Activation: NONE, Method: STANDARD PLATE) “inactive; negative”; (Test System: AMES SALMONELLA TYPHIMURIUM, Strain/Indicator: TA1537, Metabolic Activation: RAT, LIVER, S-9, AROCLOR 1254, Method: STANDARD PLATE) “inactive; negative”; under setting [5], “inactive; negative”; (Test System: AMES SALMONELLA TYPHIMURIUM, Strain/Indicator: TA1538, Metabolic Activation: RAT, LIVER, S-9, AROCLOR 1254, Method: STANDARD PLATE) “inactive; negative”. In addition, the mutagenic call was “inactive; negative” (Test System: E. COLI, Strain/Indicator: WP2 (PKM101), Metabolic Activation: NONE, Method: STANDARD PLATE); “inactive; negative” (Test System: E. COLI, Strain/Indicator: WP2 (PKM101), Metabolic Activation: RAT, LIVER, S-9, AROCLOR 1254, Method: STANDARD PLATE); “inactive; negative” (Test System: E. COLI, Strain/Indicator: WP2 (PKM101), Metabolic Activation: RAT, LIVER, S-9, PHENOBARBITONE AND BETA-NAPHTHOFLAVONE, Method: PREINCUBATION); “inactive; negative” (Test System: E. COLI, Strain/Indicator: WP2 UVRA (PKM101), Metabolic Activation: NONE, Method: STANDARD PLATE); “inactive; negative” (Test System: E. COLI, Strain/Indicator: WP2 UVRA (PKM101), Metabolic Activation: RAT, LIVER, S-9, AROCLOR 1254, Method: STANDARD PLATE); “inactive; negative” (Test System: UDS RAT HEPATOCYTES, Metabolic Activation: NONE, Method: AUTORADIOGRAPHY). Further, the mutagenic call (Test System: UDS RAT HEPATOCYTES, Strain/Indicator: BROMODEOXYURIDINE INCORP, Metabolic Activation: NONE) was “active; positive”.
With `Cn1c(N)nc2c3nc(-c4ccccc4)c(-c4ccccc4)nc3ccc21`, under setting [6], the mutagenic call was “inactive; negative”.
For the compound `O=[N+]([O-])c1ccccc1SSC(F)=C(Cl)Cl`, the mutagenic call is, setting by setting: (Test System: AMES SALMONELLA TYPHIMURIUM, Strain/Indicator: TA100(DNP6), Metabolic Activation: NONE, Method: PREINCUBATION) “active; positive”; (Test System: AMES SALMONELLA TYPHIMURIUM, Strain/Indicator: TA100(NR), Metabolic Activation: NONE, Method: PREINCUBATION) “active; positive”.
On to `CNC(=O)ONC(C)=O`, for which the mutagenic call runs as follows: under setting [3], “active; positive”; (Test System: AMES SALMONELLA TYPHIMURIUM, Strain/Indicator: TA98, Metabolic Activation: RAT, LIVER, S-9, Method: STANDARD PLATE) “active; positive”; under setting [4], “active; positive”.
